Source: patent US6677460B1, “Aromatic carboxylic acid bicyclic sulfur compounds” (Idemitsu Kosan Company, Limited, priority 1993, dated 2004)

What was measured:
barnyard grass [1] = test: Foliar treatment test (2); type: in vivo; settings: 20th day after treatment; also: ranges in brackets are in %
Description: (§1) 90 Parts by weight of the above carrier and 10 parts by weight of each of Compounds obtained in the above Preparation Examples were uniformly pulverized and mixed to obtain herbicides. Further, for Herbicide Comparative Examples, comparative herbicides were prepared by uniformly pulverizing and mixing 90 parts by weight of the above carrier and 10 parts by weight of each of the following Compounds x, y, A, B and C.
(§2) (2) Biological Test (Foliar Treatment Test, Herbicide Examples 1 and 2 and Herbicide Comparative Examples 1 and 2)
(§3) Seeds of weeds such as large crabgrass, barnyard grass, green foxtail, cocklebur, velvetleaf and slender amaranth and seeds of corn, wheat and barley were sown in 1/5,000-are Wagner pots filled with upland soil, and covered with upland soil. The seeds were grown in a greenhouse, and at the stage of 1˜2 leaves of these plants, a predetermined amount of the herbicide prepared in the above (1) was suspended in water and uniformly sprayed onto leaf and stalk portions at a rate of 200 liter/10 are. Thereafter, the plants were grown in the greenhouse, and on 20th day after the treatment, the herbicide was evaluated for herbicidal efficacy.
(§4) The herbicidal efficacy and phytotoxcity to crops were shown on the basis of the following ratings.
(§5) The ratio of remaining plant weight to non-treated was determined on the basis of the ratio of remaining plant weight to non-treated=(remaining plant weight in treated plot/remaining plant weight in non-treated plot)×100. This is also applicable to biological tests hereinafter.

cocklebur [2] = test: Foliar treatment test (2); type: in vivo; settings: 20th day after treatment; also: ranges in brackets are in %
Description: as §1, §2, §3, §4, §5

green foxtail [3] = test: Foliar treatment test (2); type: in vivo; settings: 20th day after treatment; also: ranges in brackets are in %
Description: as §1, §2, §3, §4, §5

large crabgrass [4] = test: Foliar treatment test (2); type: in vivo; settings: 20th day after treatment; also: ranges in brackets are in %
Description: as §1, §2, §3, §4, §5

slender amaranth [5] = test: Foliar treatment test (2); type: in vivo; settings: 20th day after treatment; also: ranges in brackets are in %
Description: as §1, §2, §3, §4, §5

velvetleaf [6] = test: Foliar treatment test (2); type: in vivo; settings: 20th day after treatment; also: ranges in brackets are in %
Description: as §1, §2, §3, §4, §5

barnyard grass [7] = test: Upland soil treatment test (3); type: in vivo; settings: 20th day after treatment; also: ranges in brackets are in %
Description: as §1
(§6) (3) Biological Test (Upland Soil Treatment Test, Herbicide Examples 3 and 4 and Herbicide Comparative Examples 3 and 4)
(§7) Seeds of weeds such as large crabgrass, barnyardgrass, green foxtail, cocklebur, velvetleaf and slender amaranth and seeds of corn, wheat and barley were sown in 1/5,000-are Wagner pots filled with upland soil, and covered with upland soil. Then, a predetermined amount of the herbicide prepared in the above (1) was suspended in water and uniformly sprayed onto the soil surface. Thereafter, the plants were grown in the greenhouse, and on 20th day after the treatment, the herbicide was evaluated for herbicidal efficacy.
(§8) The herbicidal efficacy and the phytotoxicity to crops are shown on the basis of the ratings described in (2) Foliar treatment test.

cocklebur [8] = test: Upland soil treatment test (3); type: in vivo; settings: 20th day after treatment; also: ranges in brackets are in %
Description: as §1, §6, §7, §8

green foxtail [9] = test: Upland soil treatment test (3); type: in vivo; settings: 20th day after treatment; also: ranges in brackets are in %
Description: as §1, §6, §7, §8

large crabgrass [10] = test: Upland soil treatment test (3); type: in vivo; settings: 20th day after treatment; also: ranges in brackets are in %
Description: as §1, §6, §7, §8

slender amaranth [11] = test: Upland soil treatment test (3); type: in vivo; settings: 20th day after treatment; also: ranges in brackets are in %
Description: as §1, §6, §7, §8

velvetleaf [12] = test: Upland soil treatment test (3); type: in vivo; settings: 20th day after treatment; also: ranges in brackets are in %
Description: as §1, §6, §7, §8

barnyard grass [13] = test: Upland soil treatment test (5); type: in vivo; settings: dosage 100 g a.i./hectare, 20th day after treatment; also: ranges in brackets are in %
Method in brief: (§9)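 Wettable powder of 10 parts compound and 90 parts carrier was suspended in water and sprayed evenly over soil after sowing. Plants were kept in a greenhouse, and herbicidal effect and crop injury to corn were scored 20 days later from air-dried weights; dosage expressed per hectare of active ingredient.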

cocklebur [14] = test: Upland soil treatment test (5); type: in vivo; settings: dosage 100 g a.i./hectare, 20th day after treatment; also: ranges in brackets are in %
Method in brief: as §9

green foxtail [15] = test: Upland soil treatment test (5); type: in vivo; settings: dosage 100 g a.i./hectare, 20th day after treatment; also: ranges in brackets are in %
Method in brief: as §9

large crabgrass [16] = test: Upland soil treatment test (5); type: in vivo; settings: dosage 100 g a.i./hectare, 20th day after treatment; also: ranges in brackets are in %
Method in brief: as §9

slender amaranth [17] = test: Upland soil treatment test (5); type: in vivo; settings: dosage 100 g a.i./hectare, 20th day after treatment; also: ranges in brackets are in %
Method in brief: as §9

velvetleaf [18] = test: Upland soil treatment test (5); type: in vivo; settings: dosage 100 g a.i./hectare, 20th day after treatment; also: ranges in brackets are in %
Method in brief: as §9

corn = test: Upland soil treatment test (5), phytotoxicity; type: in vivo; settings: dosage 100 g a.i./hectare, 20th day after treatment
Method in brief: as §9

Structure (SMILES) | Herbicidal Efficacy barnyard grass (barnyard grass [1]; dosage 3 g a.i./are) | Herbicidal Efficacy barnyard grass (barnyard grass [1]; dosage 10 g a.i./are) | Herbicidal Efficacy cocklebur (cocklebur [2]; dosage 3 g a.i./are) | Herbicidal Efficacy cocklebur (cocklebur [2]; dosage 10 g a.i./are) | Herbicidal Efficacy green foxtail (green foxtail [3]; dosage 3 g a.i./are) | Herbicidal Efficacy green foxtail (green foxtail [3]; dosage 10 g a.i./are) | Herbicidal Efficacy large crabgrass (large crabgrass [4]; dosage 3 g a.i./are) | Herbicidal Efficacy large crabgrass (large crabgrass [4]; dosage 10 g a.i./are) | Herbicidal Efficacy slender amaranth (slender amaranth [5]; dosage 3 g a.i./are) | Herbicidal Efficacy slender amaranth (slender amaranth [5]; dosage 10 g a.i./are) | Herbicidal Efficacy velvetleaf (velvetleaf [6]; dosage 3 g a.i./are) | Herbicidal Efficacy velvetleaf (velvetleaf [6]; dosage 10 g a.i./are) | Herbicidal Efficacy barnyard grass (barnyard grass [7]; dosage 3 g a.i./are) | Herbicidal Efficacy barnyard grass (barnyard grass [7]; dosage 10 g a.i./are) | Herbicidal Efficacy cocklebur (cocklebur [8]; dosage 3 g a.i./are) | Herbicidal Efficacy cocklebur (cocklebur [8]; dosage 10 g a.i./are) | Herbicidal Efficacy green foxtail (green foxtail [9]; dosage 3 g a.i./are) | Herbicidal Efficacy green foxtail (green foxtail [9]; dosage 10 g a.i./are) | Herbicidal Efficacy large crabgrass (large crabgrass [10]; dosage 3 g a.i./are) | Herbicidal Efficacy large crabgrass (large crabgrass [10]; dosage 10 g a.i./are) | also measured
CCn1ncc(C(=O)c2cc(C)c3c(c2C)C(C)(C)CCS3(=O)=O)c1O [Compound 1, 4,4,5,8-tetramethyl-6-(1-ethyl-5-hydroxypyrazol-4-yl)carbonyl-thiochroman-1,1-dioxide] | 5 (0) | 5 (0) | 5 (0) | 5 (0) | 5 (0) | 5 (0) | 5 (0) | 5 (0) | 5 (0) | 5 (0) | 5 (0) | 5 (0) | 5 (0) | 5 (0) | 5 (0) | 5 (0) | 5 (0) | 5 (0) | 5 (0) | 5 (0) | Herbicidal Efficacy slender amaranth (slender amaranth [11]; dosage 3 g a.i./are): 5 (0); Herbicidal Efficacy slender amaranth (slender amaranth [11]; dosage 10 g a.i./are): 5 (0); Herbicidal Efficacy velvetleaf (velvetleaf [12]; dosage 3 g a.i./are): 5 (0); Herbicidal Efficacy velvetleaf (velvetleaf [12]; dosage 10 g a.i./are): 5 (0); Herbicidal Efficacy barnyard grass (barnyard grass [13]): 5 (0); Herbicidal Efficacy cocklebur (cocklebur [14]): 5 (0); Herbicidal Efficacy green foxtail (green foxtail [15]): 5 (0); Herbicidal Efficacy large crabgrass (large crabgrass [16]): 5 (0); Herbicidal Efficacy slender amaranth (slender amaranth [17]): 5 (0); Herbicidal Efficacy velvetleaf (velvetleaf [18]): 5 (0); Phyto-toxicity to corn (corn): 0 (100); melting point: 208.8 to 209.3 °C
CCn1ncc(C(=O)c2ccc3c(c2C)C(C)(C)CCS3)c1O [Compound 2] | 4 (1-20) | 5 (0) | 5 (0) | 5 (0) | 3 (21-40) | 5 (0) | 5 (0) | 5 (0) | 3 (21-40) | 5 (0) | 4 (1-20) | 5 (0) | 5 (0) | 5 (0) | 5 (0) | 5 (0) | 5 (0) | 5 (0) | 5 (0) | 5 (0) | Herbicidal Efficacy slender amaranth (slender amaranth [11]; dosage 3 g a.i./are): 5 (0); Herbicidal Efficacy slender amaranth (slender amaranth [11]; dosage 10 g a.i./are): 5 (0); Herbicidal Efficacy velvetleaf (velvetleaf [12]; dosage 3 g a.i./are): 5 (0); Herbicidal Efficacy velvetleaf (velvetleaf [12]; dosage 10 g a.i./are): 5 (0); Herbicidal Efficacy barnyard grass (barnyard grass [13]): 5 (0); Herbicidal Efficacy cocklebur (cocklebur [14]): 5 (0); Herbicidal Efficacy green foxtail (green foxtail [15]): 5 (0); Herbicidal Efficacy large crabgrass (large crabgrass [16]): 5 (0); Herbicidal Efficacy slender amaranth (slender amaranth [17]): 5 (0); Herbicidal Efficacy velvetleaf (velvetleaf [18]): 5 (0); Phyto-toxicity to corn (corn): 0 (100)
